Reference: US20260097138A1, “BIOMATERIAL COATED NANOSTRUCTURES FOR PHOTOACOUSTIC IMAGING AND PHOTOTHERMAL THERAPY OF TUMOR LESIONS” (OSPEDALE SAN RAFFAELE S.R.L., priority 2022, published 2026)
“And” between values parts separate entries of the source, which are not always exact repeats. Equal values may be shown once.

Experiments:
[1] = test system: MB49-Luc cells; assay: Cell adhesion assay on coated microtiter plates; type: cell-based, murine
Experimental: (§1) The plates were washed and blocked with 2% BSA in DMEM or RPMI-1640 (200 μl/well, 1 h). MB49-Luc and 5637 cells were detached with DPBS-E, washed twice with DPBS, and suspended in DMEM or RPMI-1640 containing 0.1% BSA (binding buffer-3), and added to the coated-plates (1.5×10^5 cells/well, 100 μl). After 1-2 h of incubation at 37° C., 5% CO2, the plates were washed with binding buffer-3. Adherent cells were fixed and stained with 0.5% crystal violet in 20% methanol. After washing with water, the dye was extracted from cells using a 10% acetic acid solution (140 μl/well) and the absorbance at 570 nm was measured using a microplate reader.

[2] = test system: 5637 cells; assay: Cell adhesion assay on coated microtiter plates; type: cell-based, human; details: crystal violet stain
Experimental: as §1

[3] = Physicochemical characterization of GNRs (VIS-NIR, TEM, zeta potential)
Experimental: Characterization of the physicochemical properties of GNRs@CTAB, GNRs@Chit and functionalized GNRs@Chit-Iso4: Gold concentration was determined by flame atomic absorption spectroscopy (FAAS) using a SpectraAA 100 Varian spectrometer (Agilent Technologies, Santa Clara, USA). Gold nanorods (100 μL) were dissolved in aqua regia (3 mL) and diluted to 10 mL with ultrapure water prior to analysis. For the calibration of the FAAS analysis, Au standard solutions at 1, 2, 5 and 10 mg/L were prepared by diluting the appropriate amounts of […] TraceCERT® solutions in 30% aqua regia.
VIS-NIR absorption spectra (range 400-1100 nm) were recorded using a Cary 3500 UV-VIS-NIR modular spectrometer (Agilent Technologies, Santa Clara, USA) using a 1 cm path-length plastic cuvette.
Transmission Electron Microscopy (TEM) was performed using a TEM/STEM FEI TECNAI F20 operating at 200 keV equipped with a probe for energy-dispersing x-ray spectroscopy (EDX), selected-area electron diffraction (SAED) and High Angle Annular Dark Field Detector (HAADF). Before the analysis, samples were placed on a continuous-carbon film, supported on a copper grid and dried at 120° C.
Zeta potential measurements were performed using a Zetasizer-nano-S (Malvern Panalytical, Malvern, UK) in DTS1060C-Clear disposable zeta cells, at 25° C.

[4] = Stability of GNRs in human urine; type: physicochemical; details: 37° C.
Experimental: Stability of GNRs@Chit and GNRs@Chit-Iso4 in human urine: The stability of GNRs@Chit-Iso4 in human urine was assessed by diluting the GNR solution (0.725 mM of Au in 10 ml of water) with human urine samples (10 ml) collected from 10 healthy adult volunteers (4 males and 6 females) and placed under stirring in a water bath at 37° C. At various time points, 1 mL of the mixture was withdrawn, diluted in 10 mL of cold water (+4° C.) and subjected to VIS-NIR. A urine solution (50% in water) was used as the blank reference in the spectrometric analysis.

[5] = In vitro PAI of GNRs in agar drops; details: agar drop, no IL
From the text: (§2) US and PAI of GNRs@Chit and GNRs@Chit-Iso4: High-resolution US and PA imaging have been acquired using the Vevo LAZR-X platform (FUJIFILM VisualSonics, Inc., Toronto, ON, Canada). The imaging platform includes a high frequency US system (Vevo 3100) combined with an Nd:YAG nano-second pulsed laser with repetition rate of 20 Hz. The linear US transducer array Mx 550D consists of 256 elements with a nominal center frequency of 40 MHz (25-55 MHz bandwidth) and a spatial resolution of 40 μm with a maximum imaging depth of 15 mm. Light from the laser is delivered to the tissue through optical fibers mounted on either side of the transducer. During volumetric US-PA acquisitions, a stepper motor is used for the linear translation of the US transducer and optical fibers along the sample. The linear stepper motor moves in steps of a minimum of 0:1 mm while capturing 2-D parallel images, for a maximum 3D range distance of 6.4 cm.
(§3) 3D B mode scan was carried out for in vitro (drop) and in vivo (mouse bladder) studies. […]
In vitro PAI of GNRs was carried out as follows: GNRs (30 μl in DPBS with calcium and magnesium) were mixed with a 1% agar solution (30 μl), the mixture was then poured on Parafilm® M (Sigma) and left to solidify in a humidified chamber (FIG. 15). […] PA and US data have been analyzed using VevoLab 3.2.5 software (FIG. 15).

[6] = In vivo PAI of murine bladder after intravesical instillation; design: species or system mice; details: three cycles of manual handling, two washes
From the text: as §2, §3

[7] = test system: MB49-Luc derived orthotopic bladder tumor; assay: PAI of orthotopic MB49-Luc bladder tumor after intravesical instillation; type: in vivo, mice; details: for detection of lesions undetectable by US imaging: small orthotopic tumor
Experimental: Murine orthotopic bladder tumor model: All procedures and studies involving mice were approved by the Institutional Animal Care and Use Committee of San Raffaele Scientific Institute and performed according to the prescribed guidelines (IACUC, approval number 942). Female albino C57BL/6J mice (9 weeks old, weighing about 20 g, Charles River Laboratories, Italy) were anesthetized with ketamine (80 mg/kg) and xylazine (15 mg/kg) and kept in dorsal position. Using a 24-gauge catheter, the bladder of each mouse was emptied and instilled with or without MB49-Luc cells (10^5 cells/100 μl in DPBS). Thirty minutes later the catheter was removed, and mice were allowed to recover and returned to their cage. Tumor growth was monitored by measuring the tumor volume through US imaging (see below) and in vivo bioluminescent quantification after administration of luciferin (15 mg/kg, intra peritoneum) using the non-invasive In Vivo Imaging System (IVIS, PerkinElmer, USA).
as §2
3D B mode scan was carried out for in vitro (drop) and in vivo (mouse bladder) studies. The photoacoustic spectra between 680 nm and 970 nm were scanned with a step size of 5 nm; for the in vivo studies (murine bladder) the 3D multispectral PA scans were acquired selecting PA spectral curve of tissue components melanin, deoxy- and oxy-generated blood, and GNRs; the processed wavelengths (680; 722; 764; 810; 924; 970 nm) were automatically selected from the spectral curve used to spectrally unmix the GNRs signal from other endogenous tissue chromophore signals such as oxy, deoxy hemoglobin. The algorithm reported by Luke et al was used to select these wavelengths which is ideal for separating the signal from GNRs from other endogenous absorbers.
Data analyses were conducted using the Vevo® Lab software; volumes of interest were obtained by manually drawing Volumes of Interest (VOIs) on 3D B-mode images. GNRs, melanin, oxy- and deoxy-hemoglobin content were estimated through spectral unmixing analyses of the spectroscopic data.

## GNRs@Chit-Iso4: gold nanorods coated with thiolated chitosan, coupled via NHS-PEG12-maleimide crosslinker to the Iso4 peptide
[1]; MB49-Luc cells in DMEM medium containing 25-75% urine
  increase of cell adhesion caused by urine: ~20%
[1]; MB49-Luc cells, crystal violet stain
  cell adhesion to solid phase coated with the substance: induced cell adhesion and spreading
[2]
  cell adhesion to solid phase coated with the substance: induced cell adhesion and spreading
[3]; TEM
  GNRs length: 90.2±7.2 nm and 90.2 ± 7.2d nm
  GNRs width: 24.9±2.6 nm and 24.9 ± 2.6d nm
[3]; VIS-NIR
  λmax (wavelength of max absorbance, longitudinal-LSPR peak): 802 nm
[3]; calculated as the length/width ratio
  Aspect Ratio: 3.62±0.67 and 3.6 ± 0.6
[4]
  incubation time in urine without dramatic loss of optical properties in the NIR: at least 2 h
[4]; human urine, first 40 minutes
  reduction of the absorbance at ~800 nm: 14%
[4]; human urine, following 80 minutes
  further reduction of the absorbance at ~800 nm: 7%
[4]; human urine, up to 2 h
  change in the shape of the LSPR spectrum: No significant change
[5]
  behaviour under pulsed laser with light attenuators without IL: underwent reshaping
[6]
  binding in healthy mice: no binding
[7]; 3 nmol Au, two washing steps, tumor on the left side
  PA signal at tumor without manual handling of urine: lack of PA signal
[7]; 4 days after MB49-Luc cell implantation
  volume of small tumor detected: 7.9 mm^3
[7]
  detection of lesions undetectable by US imaging: can reveal the presence of lesions undetectable with US imaging and bioluminescence
[7]; listed as GNR@Chit-Iso4
  detection of lesions undetectable by US imaging: a neoplastic region in the upper region of the bladder that was undetectable by US scan
[7]; well-established tumor, three cycles of manual handling, two washes
  binding in tumor bearing mice by PAI: to the three well-established neoplastic lesions at the bottom, lateral side and upper part of the bladder, and not present in non-neoplastic tissue
